Measurements: publication PMC8124942, “In Vitro and In Vivo Cell Uptake of a Cell-Penetrating Peptide Conjugated with Fluorescent Dyes Having Different Chemical Properties” (Cancers, 2021)

Experiment: Reverse-phase HPLC retention time as indicator of hydrophilicity/lipophilicity
Type: physicochemical
Conditions: chromatographic, COSMOSIL 5C18-AR-300 (4.6 x 150 mm), eluent A H2O/0.1% TFA, eluent B CH3CN/0.1% TFA, A:B = 80:20 to 20:80 in 25 min, detection 649 nm (Cy5/sulfoCy5) or 545 nm (Cy3/sulfoCy3), used as indicator of hydrophilicity/lipophilicity
Excerpt: General chemicals were of the best grade available, supplied by FUJIFILM Wako Pure Chemical Corporation (Osaka, Japan), Tokyo Chemical Industries Co., Ltd. (Tokyo, Japan), KANTO CHEMICAL Co., INC. (Tokyo, Japan), and Sigma-Aldrich Co. LLC (St. Louis, MO, USA), and were used without further purification. Cy3/Cy5-SE was purchased from Abcam (Cambridge, UK) and sulfoCy3/sulfoCy5-SE was purchased from AAT Bioquest (Sunnyvale, CA, USA). Peptide A was purchased from GlyTech, Inc. (Kyoto, Japan). MALDI-TOF mass spectra (MS) were measured with an Autoflex III TOF/TOF (Bruker Corporation, Billerica, MA, USA). Purification and high-performance liquid chromatography (HPLC) analyses were performed by HPLC systems (Shimadzu Corporation, Kyoto, Japan) with reverse-phase columns: the COSMOSIL 5C18-AR-300 (4.6 × 150 mm) (NACALAI TESQUE, INC., Kyoto, Japan) for analysis and the COSMOSIL 5C18-AR-300 (10 mm × 150 mm) (NACALAI TESQUE, INC.) for purification, using eluent A (H2O/0.1% trifluoroacetic acid (TFA)) and eluent B (CH3CN/0.1% TFA). Fluorescence images of living cells were taken on a BX41 upright fluorescent microscope (Olympus Corporation, Tokyo, Japan) equipped with a suitable filter set for Cy3/Cy5 dyes; it consisted of a 530–550 nm excitation filter and a 575–625 nm emission filter for the Cy3 dye, and a 608–648 nm excitation filter and a 652–732 nm emission filter for the Cy5 dye. […] Fluorescence images of animals and organs were taken with a FluorVivo Imaging System (Indec BioSystems, Santa Clara, CA, USA) equipped with a suitable filter set for a Cy5 dye; it consisted of a 600–640 nm excitation filter and a 665 nm long pass filter. […]
Cy3/Cy5-peptide A and sulfoCy3/sulfoCy5-peptide A were synthesized using commercially available Cy3/Cy5 succinimidyl ester (SE) and sulfoCy3/sulfoCy5 SE (Figure 1). […] Dye-SE and dye-peptide A were analyzed by HPLC under the same conditions; the retention times are shown in Table 1 because they are indicators of hydrophilicity/lipophilicity. […]
Figure S1. […] The compounds were analyzed by reverse-phase HPLC (eluent A: […]

Q: For `CCN1C(=CC=CC=CC2=[N+](CCCCCC(=O)ON3C(=O)CCC3=O)c3ccc(S(=O)(=O)O)cc3C2(C)C)C(C)(C)c2cc(S(=O)(=O)[O-])ccc21` [sulfoCy5-SE], which “Retention Time” value is on record?
A: The value was 9.3 min.

Q: Which “Retention Time” value does the source give for `CCN1C(=CC=CC2=[N+](CCCCCC(=O)ON3C(=O)CCC3=O)c3ccc(S(=O)(=O)O)cc3C2(C)C)C(C)(C)c2cc(S(=O)(=O)[O-])ccc21` [sulfoCy3-SE] here?
A: The value was 7.3 min.

Q: With Cy5 succinimidyl ester [Cy5-SE] as the compound, how does the “Retention Time” value read?
A: Its value is 22.6 min.
